Laboratory results from ChEMBL document CHEMBL4229544, “Design, synthesis and antibacterial properties of pyrimido[4,5-b]indol-8-amine inhibitors of DNA gyrase” (Bioorg Med Chem Lett, 2018).
≈ marks a conversion by molar mass, not a printed value.

Columns and labels:
Staphylococcus aureus = experiment: Antibacterial activity against Staphylococcus aureus ATCC 29213; format: functional
Streptococcus pneumoniae [1] = experiment: Antibacterial activity against Streptococcus pneumoniae ATCC 49619; format: functional
Haemophilus influenzae [2] = experiment: Antibacterial activity against Haemophilus influenzae ATCC 49247; format: functional
Pseudomonas aeruginosa [3] = experiment: Antibacterial activity against Pseudomonas aeruginosa ATCC 27853; format: functional
[4] = molecular target: T1, DNA gyrase subunit A/DNA gyrase subunit B (Mycobacterium tuberculosis (strain ATCC 25618 / H37Rv), UniProt P9WG45+P9WG47); experiment: Inhibition of Mycobacterium tuberculosis DNA gyrase activity; format: protein-complex assay
Homo sapiens = species on record: Homo sapiens; experiment: Inhibition of human topoisomerase-2-mediated decatenation at 100 uM relative to control
Acinetobacter baumannii = experiment: Antibacterial activity against Acinetobacter baumannii NCTC 13420; format: functional
Enterococcus faecalis [5] = experiment: Antibacterial activity against Enterococcus faecalis ATCC 29212; format: functional
HepG2 = experiment: Cytotoxicity against human HepG2 cells after 24 hrs by CellTiter-Glo assay; format: cell-based; details: HepG2, 24 h
Escherichia coli = experiment: Antibacterial activity against Escherichia coli ATCC 25922; format: functional
[6] = tested on: Mycolicibacterium smegmatis; experiment: Antibacterial activity against Mycobacterium smegmatis ATCC 19420; format: functional
[7] = tested on: Staphylococcus epidermidis; experiment: Antibacterial activity against Staphylococcus epidermidis ATCC 12228; format: functional
[8] = molecular target: T1, DNA gyrase subunit A/DNA gyrase subunit B; experiment: Inhibition of Mycobacterium tuberculosis DNA gyrase ATPase activity; format: protein-complex assay
[9] = tested on: Mycobacterium tuberculosis; experiment: Antibacterial activity against Mycobacterium tuberculosis H37Rv; format: functional
[10] = tested on: Mycobacterium tuberculosis; experiment: Antibacterial activity against Mycobacterium tuberculosis H37Rv measured after 5 days by resazurin-dye based microplate assay; format: functional; details: 120 h
[11] = tested on: Staphylococcus epidermidis; experiment: Antibacterial activity against Staphylococcus epidermidis ATCC 12228 by agar dilution method; format: functional
Enterococcus faecalis [12] = experiment: Antibacterial activity against Enterococcus faecalis ATCC 29212 by agar dilution method; format: functional
Haemophilus influenzae [13] = experiment: Antibacterial activity against Haemophilus influenzae ATCC 49247 by agar dilution method; format: functional
Streptococcus pneumoniae [14] = experiment: Antibacterial activity against Streptococcus pneumoniae ATCC 49619 by agar dilution method; format: functional
Pseudomonas aeruginosa [15] = experiment: Antibacterial activity against Pseudomonas aeruginosa ATCC 27853 by agar dilution method; format: functional

T1 sequence (P9WG45 whole entry): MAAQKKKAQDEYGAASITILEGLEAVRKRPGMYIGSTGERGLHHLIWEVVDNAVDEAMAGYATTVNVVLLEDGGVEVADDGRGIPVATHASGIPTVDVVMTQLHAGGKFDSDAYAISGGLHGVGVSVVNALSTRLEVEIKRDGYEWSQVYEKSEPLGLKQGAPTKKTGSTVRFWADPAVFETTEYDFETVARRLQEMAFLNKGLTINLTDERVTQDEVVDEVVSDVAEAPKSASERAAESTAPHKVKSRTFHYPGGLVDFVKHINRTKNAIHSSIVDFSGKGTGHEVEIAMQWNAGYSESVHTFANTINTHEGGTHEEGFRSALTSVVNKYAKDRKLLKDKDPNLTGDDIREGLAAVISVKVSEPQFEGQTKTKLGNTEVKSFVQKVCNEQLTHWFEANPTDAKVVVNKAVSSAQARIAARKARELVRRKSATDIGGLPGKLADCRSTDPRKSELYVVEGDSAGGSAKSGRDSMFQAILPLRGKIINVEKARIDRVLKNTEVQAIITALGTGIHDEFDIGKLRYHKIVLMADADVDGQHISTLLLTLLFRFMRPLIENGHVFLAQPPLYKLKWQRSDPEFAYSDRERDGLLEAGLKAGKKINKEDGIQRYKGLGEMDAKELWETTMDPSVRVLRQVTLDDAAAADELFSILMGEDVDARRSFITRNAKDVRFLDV
T1 sequence (P9WG47 whole entry): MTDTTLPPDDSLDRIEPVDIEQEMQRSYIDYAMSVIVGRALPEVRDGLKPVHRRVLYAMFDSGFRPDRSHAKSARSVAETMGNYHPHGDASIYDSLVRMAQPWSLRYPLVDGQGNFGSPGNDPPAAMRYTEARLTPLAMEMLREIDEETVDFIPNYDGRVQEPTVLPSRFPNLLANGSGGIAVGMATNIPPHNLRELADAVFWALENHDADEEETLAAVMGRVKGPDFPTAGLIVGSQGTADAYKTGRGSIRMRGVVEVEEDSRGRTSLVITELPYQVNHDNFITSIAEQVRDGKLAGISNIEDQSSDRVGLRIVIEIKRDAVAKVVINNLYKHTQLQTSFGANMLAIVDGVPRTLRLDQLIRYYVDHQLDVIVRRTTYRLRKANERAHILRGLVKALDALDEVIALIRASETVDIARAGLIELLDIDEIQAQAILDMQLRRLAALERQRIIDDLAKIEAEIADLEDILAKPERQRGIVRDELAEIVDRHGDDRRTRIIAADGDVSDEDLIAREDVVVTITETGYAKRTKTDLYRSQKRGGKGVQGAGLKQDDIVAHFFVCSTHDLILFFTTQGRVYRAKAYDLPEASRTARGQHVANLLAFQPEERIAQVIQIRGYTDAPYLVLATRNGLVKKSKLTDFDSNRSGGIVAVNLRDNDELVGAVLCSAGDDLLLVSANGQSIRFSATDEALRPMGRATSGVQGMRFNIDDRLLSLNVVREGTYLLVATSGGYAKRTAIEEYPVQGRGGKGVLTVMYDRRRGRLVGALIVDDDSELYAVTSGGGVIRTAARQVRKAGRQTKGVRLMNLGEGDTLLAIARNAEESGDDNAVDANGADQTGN

Row | Compound | MIC (Staphylococcus aureus) [mg/L] | MIC (Enterococcus faecalis [5]) [mg/L] | MIC (Escherichia coli) [mg/L] | MIC [6] [mg/L] | MIC [9] [mg/L] | also measured
1 | CNc1cc(F)cc2c1[nH]c1nc(CNC(=O)c3cocn3)nc(N3CCC(N)C3)c12 (centres undefined) | 8 (≈ 18.8 µM) | 0.06 (≈ 0.141 µM) | 128 (≈ 302 µM) | 0.12 (≈ 0.283 µM) |  | MIC (Streptococcus pneumoniae [1]): 0.12 mg/L (≈ 0.283 µM); MIC (Haemophilus influenzae [2]): 1 mg/L (≈ 2.36 µM); MIC (Pseudomonas aeruginosa [3]): 128 mg/L (≈ 302 µM); IC50 [4]: 0.005 µM; inhibition (Homo sapiens): 5.8%; MIC (Acinetobacter baumannii): 16 mg/L (≈ 37.7 µM); IC50 (HepG2): 10.8 mg/L (≈ 25.5 µM); MIC [7]: 1 mg/L (≈ 2.36 µM); IC50 [8]: 0.025 µM
2 | CNc1cc(F)cc2c1[nH]c1nc(CNC(=O)c3cnco3)nc(N3CCC(NC)C3)c12 (centres undefined) | 8 (≈ 18.2 µM) | 0.5 (≈ 1.14 µM) | 4 (≈ 9.12 µM) | 0.5 (≈ 1.14 µM) | 0.03 (≈ 0.0684 µM) | MIC (Streptococcus pneumoniae [1]): 2 mg/L (≈ 4.56 µM); MIC (Haemophilus influenzae [2]): 4 mg/L (≈ 9.12 µM); MIC (Pseudomonas aeruginosa [3]): > 64 mg/L; MIC (Acinetobacter baumannii): > 64 mg/L; IC50 (HepG2): > 32 mg/L; MIC [7]: 2 mg/L (≈ 4.56 µM)
3 | CNc1cc(F)cc2c1[nH]c1nc(CNC(=O)c3cnco3)nc(N3CCC(N(C)C)C3)c12 (centres undefined) | 0.5 (≈ 1.1 µM) | 0.015 (≈ 0.0331 µM) | 0.25 (≈ 0.552 µM) | 0.06 (≈ 0.133 µM) | 0.06 (≈ 0.133 µM) | MIC (Streptococcus pneumoniae [1]): 0.12 mg/L (≈ 0.265 µM); MIC (Haemophilus influenzae [2]): 4 mg/L (≈ 8.84 µM); MIC (Pseudomonas aeruginosa [3]): > 64 mg/L; MIC (Acinetobacter baumannii): 1 mg/L (≈ 2.21 µM); IC50 (HepG2): > 16 mg/L; MIC [7]: 0.12 mg/L (≈ 0.265 µM)
4 | CNc1cc(F)cc2c1[nH]c1nc(CNC(=O)c3cccc(C(=O)OC)n3)nc(N3CCC(CN)C3)c12 (centres undefined) | 8 (≈ 15.8 µM) | 1 (≈ 1.97 µM) | 32 (≈ 63.2 µM) | 0.06 (≈ 0.118 µM) |  | 
5 | CNc1cc(F)cc2c1[nH]c1nc(CN)nc(N3CCC(N)C3)c12 (centres undefined) | 8 (≈ 24.3 µM) | 8 (≈ 24.3 µM) | 8 (≈ 24.3 µM) |  |  | 
6 | CO[C@H]1/C=C/O[C@@]2(C)Oc3c(C)c(O)c4c(O)c(c(/C=N/N5CCN(C)CC5)c(O)c4c3C2=O)NC(=O)/C(C)=C\C=C\[C@H](C)[C@H](O)[C@@H](C)[C@@H](O)[C@@H](C)[C@H](OC(C)=O)[C@@H]1C [RIFAMPIN] |  |  |  | 16 (≈ 19.4 µM) |  | 
7 | CNc1cc(F)cc2c1[nH]c1nc(CNC(=O)c3cnc(C)o3)nc(N3CCC(CN)C3)c12 (centres undefined) | 8 (≈ 17.7 µM) | 0.25 (≈ 0.552 µM) | 4 (≈ 8.84 µM) | 0.12 (≈ 0.265 µM) | 0.015 (≈ 0.0331 µM) | 
8 | CNc1cc(F)cc2c1[nH]c1nc(CNC(=O)c3ocnc3C)nc(N3CCC(N(C)C)C3)c12 (centres undefined) | 1 (≈ 2.14 µM) | 0.03 (≈ 0.0643 µM) | 2 (≈ 4.29 µM) | 0.06 (≈ 0.129 µM) | 0.06 (≈ 0.129 µM) | 
9 | CNc1cc(F)cc2c1[nH]c1nc(CNC(=O)c3cnco3)nc(N3CCC(N)C3)c12 (centres undefined) | 8 (≈ 18.8 µM) | 1 (≈ 2.36 µM) | 4 (≈ 9.42 µM) | 0.25 (≈ 0.589 µM) | 0.25 (≈ 0.589 µM) | MIC (Streptococcus pneumoniae [1]): 1 mg/L (≈ 2.36 µM); MIC (Haemophilus influenzae [2]): 1 mg/L (≈ 2.36 µM); MIC (Pseudomonas aeruginosa [3]): 32 mg/L (≈ 75.4 µM); IC50 [4]: 0.01 µM; inhibition (Homo sapiens): 21.2%; MIC (Acinetobacter baumannii): 8 mg/L (≈ 18.8 µM); IC50 (HepG2): > 16 mg/L; MIC [7]: 1 mg/L (≈ 2.36 µM); IC50 [8]: 0.059 µM
10 | CNc1cc(F)cc2c1[nH]c1nc(CNC(=O)c3cccnn3)nc(N3CCC(N)C3)c12 (centres undefined) | 8 (≈ 18.4 µM) | 0.12 (≈ 0.276 µM) | 4 (≈ 9.19 µM) |  |  | 
11 | CNc1cc(F)cc2c1[nH]c1nc(CNC(=O)c3ccco3)nc(N3CCC(N(C)C)C3)c12 (centres undefined) | 0.25 (≈ 0.554 µM) | 0.12 (≈ 0.266 µM) | 0.5 (≈ 1.11 µM) | 0.06 (≈ 0.133 µM) | 0.03 (≈ 0.0664 µM) | 
12 | CNc1cc(F)cc2c1[nH]c1nc(CNC(=O)c3cnco3)nc(N3CCC(CN)C3)c12 (centres undefined) | 4 (≈ 9.12 µM) | 0.12 (≈ 0.274 µM) | 4 (≈ 9.12 µM) | 0.06 (≈ 0.137 µM) | 0.03 (≈ 0.0684 µM) | 
13 | CNc1cc(F)cc2c1[nH]c1nc(CNC(=O)c3cocn3)nc(N3CCC(NC)C3)c12 (centres undefined) | 16 (≈ 36.5 µM) | 0.25 (≈ 0.57 µM) | 16 (≈ 36.5 µM) | 0.5 (≈ 1.14 µM) | 0.12 (≈ 0.274 µM) | 
14 | CNc1cc(F)cc2c1[nH]c1nc(CNC(=O)c3ocnc3C)nc(N3CCC(CN)C3)c12 (centres undefined) | 8 (≈ 17.7 µM) | 0.5 (≈ 1.1 µM) | 8 (≈ 17.7 µM) | 0.03 (≈ 0.0663 µM) | 0.015 (≈ 0.0331 µM) | 
15 | CNc1cc(F)cc2c1[nH]c1nc(CNC(=O)c3ocnc3C)nc(N3CCC(NC)C3)c12 (centres undefined) | 4 (≈ 8.84 µM) | 0.25 (≈ 0.552 µM) | 4 (≈ 8.84 µM) | 0.06 (≈ 0.133 µM) | 0.03 (≈ 0.0663 µM) | 
16 | NNC(=O)c1ccncc1 [ISONIAZID] |  |  |  | 4 (≈ 29.2 µM) |  | 
17 | CNc1cc(F)cc2c1[nH]c1nc(CNC(=O)c3cnc(C)o3)nc(N3CCC(N(C)C)C3)c12 (centres undefined) | 1 (≈ 2.14 µM) | 0.015 (≈ 0.0322 µM) | 1 (≈ 2.14 µM) | 0.002 (≈ 0.00429 µM) |  | 
18 | CNc1cc(F)cc2c1[nH]c1nc(CNC(=O)c3ccc4cc[nH]c4n3)nc(N3CCC(N(C)C)C3)c12 (centres undefined) | 1 (≈ 1.99 µM) | 0.5 (≈ 0.997 µM) | 4 (≈ 7.97 µM) | 0.25 (≈ 0.498 µM) | 0.25 (≈ 0.498 µM) | 
19 | CO[C@@H]1[C@@H](OC(N)=O)[C@@H](O)[C@H](Oc2ccc3c(O)c(NC(=O)c4ccc(O)c(CC=C(C)C)c4)c(=O)oc3c2C)OC1(C)C [NOVOBIOCIN] | 0.06 (≈ 0.0979 µM) |  | > 64 | 1 (≈ 1.63 µM) |  | MIC [10]: 4 mg/L (≈ 6.53 µM); IC50 (HepG2): > 32 mg/L; MIC [11]: 0.06 mg/L (≈ 0.0979 µM); MIC (Enterococcus faecalis [12]): 4 mg/L (≈ 6.53 µM); MIC (Haemophilus influenzae [13]): 0.5 mg/L (≈ 0.816 µM); MIC (Streptococcus pneumoniae [14]): 0.5 mg/L (≈ 0.816 µM); MIC (Pseudomonas aeruginosa [15]): > 64 mg/L
20 | COc1c(N2C[C@@H]3CCCN[C@@H]3C2)c(F)cc2c(=O)c(C(=O)O)cn(C3CC3)c12 [MOXIFLOXACIN] |  |  |  | 0.03 (≈ 0.0747 µM) |  | 
21 | CNc1cc(F)cc2c1[nH]c1nc(CNC(=O)c3cccnc3)nc(N3CCC(N)C3)c12 (centres undefined) | 32 (≈ 73.7 µM) | 0.25 (≈ 0.575 µM) | 8 (≈ 18.4 µM) |  |  | 
